Reference: patent US12606568B2, “SMARCA degraders and uses thereof” (Kymera Therapeutics, Inc., priority 2020, dated 2026)

How the values were obtained:
Type in all cases: cell-based
[1] = target: T1, SMARCA4 (Homo sapiens, UniProt P51532); test: SMARCA4 Western blot MV4-11 degradation; conditions: MV4-11 cells, 24 h; read-out: SMARCA4 MSD MV411 degradation 24 h: Mean external-Abs DC50
T1 construct: SMARCA2 and SMARCA4 protein degradation in MV4-11 cells; endogenous in cells; host or cells: MV4-11
Experimental: (§1) Example 54. SMARCA2 and SMARCA 4 Western Blot MV4-11 Degradation
(§2) Cells were seeded into 6-well plates (MV4-11: 4×10^6 cells/well/1 ml) and 1 ml of 2× compound solution was added into the well to make the final concentration and the plates were mixed well and incubated for 24 hours (No cytotoxicity was observed). The cell were collected with media and spun at 3000 rpm for 5 minutes. The supernatant was aspirated and the well and the cells were washed with cold PBS once and combined for centrifugation again; the supernatant aspirated again. 200 ul pre-chilled RIPA lysis buffer (Boston BioProducts BP-115D) with protease/phosphatase inhibitor (Roche 05892791001/Roche 04906837001) was directly added into the tube to lyze the cells for 20 minutes on ice. The cell lysate were collected into EP tubes and spun at 13000 rpm for 20 minutes and 72 ul supernatant was transferred to a fresh EP tube containing 18 ul of 5× loading buffer (Beyotime Bio P0015) to make the loading samples. The samples were heated to 100° C. for 10 minutes and cooled to RT and microcentrifuged. 20 ul of samples were loaded onto SDS-PAGE gel (Novex, WG1402BOX) and the gel was run at 80 V for 20 minutes and 120 V for 1.5 hours. The samples were electrotransfer to a NC membrane using wet-transfer method with 250 mA for 2.5 hours. The membrane was blocked with LICOR blocking buffer (LI-COR, 927-50000) for 1 hour. The membrane was washed three times with TBST (CST #9997S), 5 minutes each. Incubation was performed with primary antibody prepared in blocking buffer with 0.1% Tween-20 (Solarbio, P8220) at 4° C. overnight (Anti-SMARCA2/BRM antibody (ab15597) 1:500; Anti-BRG1 antibody [EPR3912] (ab108318) 1:1000; Rabbit anti-Baf180 antibody [EPR15860] (Abcam, ab196022) 1:1000; mouse anti-beta-Actin (8H10D10) (CST #3700) 1:10000). The membrane was washed three times with TBST, 5 minutes each. Incubation with secondary antibody was performed for 1 hour at RT (anti-rabbit IgG (Licor, 926-32211) 1:5000; anti-mouse IgG (LI-COR, 926-68070) 1:5000). The membrane was washed three times with TBST, 5 minutes each and lastly the LiCOR was read.
(§3) The letter codes for SMARCA degradation potency (DC50) include: A (<100 nM), B (100-500 nM), C (501-1000 nM), and D (>1000 nM). The letter codes for the percentage of SMARCA degradation after 24 hours (Dmax %) include: A (>90% degradation), B (>70-90% degradation), C (50-70% degradation), and D (<50% degradation).

[2] = target: T2, SMARCA2 (Homo sapiens, UniProt P51531); test: SMARCA2 Western blot MV4-11 degradation; set-up: SMARCA2 and SMARCA4 protein degradation in MV4-11 cells; endogenous in cells; host or cells: MV4-11; conditions: 24 h; for DC50: MV4-11 cells, read-out: SMARCA2 MSD MV411 degradation 24 h: Mean external-Abs DC50; for Dmax: MV4-11, MV4-11 cells, read-out: SMARCA2 MSD MV411 degradation 24 h: average Dmax %
Experimental: as §1, §2, §3

[3] = target: T2, SMARCA2; test: MSD SMARCA2 degradation in A549 cell line; set-up: endogenous in cells; conditions: 24 h; for DC50: A549 cells, read-out: SMARCA2 MSD A549 degradation 24 h: Average external-Abs DC50; for Dmax: A549, A549 cells
Experimental: Example 53. MSD SMARCA2 Degradation in A549 Cell Line
Cells were seeded into 96-well plates (A549 cells: 2×10^4 cells/well/100 ul media) abd incubated overnight. The next day, 200 nl compound were added into the intermediate plate with Echo (Labcyte 550) from source plate containing a 3-fold serial dilution from top concentration of 1 mM. The culture medium was changed with 80 ul of fresh medium and 80 ul of 2× compound solution was added into the well to make a final concentration of 1000 nM, 333.3 nM, 111.1 nM, 37.04 nM, 12.35 nM, 4.115 nM, 1.372 nM, 0.457 nM, 0.152 nM and 0 nM (DMSO). The wells were mixed and then incubated for 24 hours. The media was aspirated from the cultures and 60 ul pre-chilled PIPA lysis buffer (Boston BioProducts BP-115D) with protease/phosphatase inhibitor (Roche 05892791001/Roche 04906837001) was added into the well to lyze the cells for 20 minutes at 4° C. The MSD plate (L15XA) was coated with 40 ul cell lysate and incubated at 4° C. overnight. The next day, the plate was washed three times with TBST (CST #9997S), 150 ul/well. The MSD plates was blocked with 150 ul blocking buffer per well and shaked for 1 hr at R^†, 600 rpm. The blocking buffer was 3% Blocker A (MSD, R93BA-4) in TBST. The MSD plate was washed three times with 150 ul/well of TBST and 25 ul/well of detection antibody (Rabbit anti-SMARCA2/BRM antibody, 100 μg/ml, ab223735) was added at final concentration of 1 ug/mi diluted in 1% o Blocking buffer and shaken for 1 hour at R^†, 600 rpm. The MSD plate was washed three times with 150 ul/well of TBST and 25 ul/well of SULFO-TAG anti-rabbit antibody (MSD, R32AB-1) was added at final concentration of 1 μg/ml diluted in […] Blocking buffer and shaken for 1 hour at R^†, 600 rpm. The MSD plate was washed three times with 150 ul/well of TBST and 150 ul/well of 2×MSD reading buffer diluted from 4× (MSD, R92TC-2) with water was added. Lastly, the MSD instrument was read.
as §3, with “SMARCA2” for “SMARCA”, “% o)” for “%)”, “(>90% o” for “(>90%”, “(>70-90% o” for “(>70-90%”, “(50-70% o” for “(50-70%”

T2 sequence (P51531 whole entry): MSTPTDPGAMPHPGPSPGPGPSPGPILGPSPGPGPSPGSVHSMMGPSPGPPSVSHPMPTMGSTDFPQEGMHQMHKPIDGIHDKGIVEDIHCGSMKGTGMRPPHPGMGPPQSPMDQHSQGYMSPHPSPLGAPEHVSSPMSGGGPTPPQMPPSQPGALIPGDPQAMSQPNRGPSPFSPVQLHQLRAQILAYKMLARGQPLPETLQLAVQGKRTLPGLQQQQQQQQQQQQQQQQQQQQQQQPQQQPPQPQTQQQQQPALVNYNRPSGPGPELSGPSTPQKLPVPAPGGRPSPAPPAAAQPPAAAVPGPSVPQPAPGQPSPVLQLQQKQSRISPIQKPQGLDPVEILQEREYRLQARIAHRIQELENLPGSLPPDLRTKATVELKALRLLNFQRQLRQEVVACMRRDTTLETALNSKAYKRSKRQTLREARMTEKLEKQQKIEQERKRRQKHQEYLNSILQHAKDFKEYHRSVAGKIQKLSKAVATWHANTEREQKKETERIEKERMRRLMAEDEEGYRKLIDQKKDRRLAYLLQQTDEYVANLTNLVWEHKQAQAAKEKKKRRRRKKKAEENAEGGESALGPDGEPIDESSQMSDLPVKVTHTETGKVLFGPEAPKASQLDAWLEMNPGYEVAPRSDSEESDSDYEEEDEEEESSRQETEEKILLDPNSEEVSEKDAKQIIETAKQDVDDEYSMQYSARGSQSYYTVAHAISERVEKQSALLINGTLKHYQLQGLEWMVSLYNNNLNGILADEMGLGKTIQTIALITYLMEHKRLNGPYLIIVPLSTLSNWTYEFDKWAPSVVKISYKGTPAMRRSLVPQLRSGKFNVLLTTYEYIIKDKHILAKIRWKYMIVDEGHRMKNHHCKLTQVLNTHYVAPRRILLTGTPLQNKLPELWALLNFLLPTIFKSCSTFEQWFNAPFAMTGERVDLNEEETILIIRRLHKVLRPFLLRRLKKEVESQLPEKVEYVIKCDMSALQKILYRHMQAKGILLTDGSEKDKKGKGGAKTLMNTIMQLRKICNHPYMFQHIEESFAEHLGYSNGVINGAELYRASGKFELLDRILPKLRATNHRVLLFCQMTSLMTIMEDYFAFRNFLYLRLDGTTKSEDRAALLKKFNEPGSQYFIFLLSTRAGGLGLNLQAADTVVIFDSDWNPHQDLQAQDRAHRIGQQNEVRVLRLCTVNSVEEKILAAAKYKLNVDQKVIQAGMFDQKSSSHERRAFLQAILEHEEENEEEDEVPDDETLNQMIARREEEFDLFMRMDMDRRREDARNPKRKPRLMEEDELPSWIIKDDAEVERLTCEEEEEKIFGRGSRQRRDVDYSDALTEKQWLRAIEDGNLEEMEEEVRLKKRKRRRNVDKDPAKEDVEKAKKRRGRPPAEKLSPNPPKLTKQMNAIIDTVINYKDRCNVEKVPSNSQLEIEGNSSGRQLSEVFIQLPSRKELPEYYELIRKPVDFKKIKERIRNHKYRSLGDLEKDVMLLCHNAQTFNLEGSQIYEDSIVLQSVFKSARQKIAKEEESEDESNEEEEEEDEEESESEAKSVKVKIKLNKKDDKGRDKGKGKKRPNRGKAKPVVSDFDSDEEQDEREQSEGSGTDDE
T1 sequence (P51532 whole entry): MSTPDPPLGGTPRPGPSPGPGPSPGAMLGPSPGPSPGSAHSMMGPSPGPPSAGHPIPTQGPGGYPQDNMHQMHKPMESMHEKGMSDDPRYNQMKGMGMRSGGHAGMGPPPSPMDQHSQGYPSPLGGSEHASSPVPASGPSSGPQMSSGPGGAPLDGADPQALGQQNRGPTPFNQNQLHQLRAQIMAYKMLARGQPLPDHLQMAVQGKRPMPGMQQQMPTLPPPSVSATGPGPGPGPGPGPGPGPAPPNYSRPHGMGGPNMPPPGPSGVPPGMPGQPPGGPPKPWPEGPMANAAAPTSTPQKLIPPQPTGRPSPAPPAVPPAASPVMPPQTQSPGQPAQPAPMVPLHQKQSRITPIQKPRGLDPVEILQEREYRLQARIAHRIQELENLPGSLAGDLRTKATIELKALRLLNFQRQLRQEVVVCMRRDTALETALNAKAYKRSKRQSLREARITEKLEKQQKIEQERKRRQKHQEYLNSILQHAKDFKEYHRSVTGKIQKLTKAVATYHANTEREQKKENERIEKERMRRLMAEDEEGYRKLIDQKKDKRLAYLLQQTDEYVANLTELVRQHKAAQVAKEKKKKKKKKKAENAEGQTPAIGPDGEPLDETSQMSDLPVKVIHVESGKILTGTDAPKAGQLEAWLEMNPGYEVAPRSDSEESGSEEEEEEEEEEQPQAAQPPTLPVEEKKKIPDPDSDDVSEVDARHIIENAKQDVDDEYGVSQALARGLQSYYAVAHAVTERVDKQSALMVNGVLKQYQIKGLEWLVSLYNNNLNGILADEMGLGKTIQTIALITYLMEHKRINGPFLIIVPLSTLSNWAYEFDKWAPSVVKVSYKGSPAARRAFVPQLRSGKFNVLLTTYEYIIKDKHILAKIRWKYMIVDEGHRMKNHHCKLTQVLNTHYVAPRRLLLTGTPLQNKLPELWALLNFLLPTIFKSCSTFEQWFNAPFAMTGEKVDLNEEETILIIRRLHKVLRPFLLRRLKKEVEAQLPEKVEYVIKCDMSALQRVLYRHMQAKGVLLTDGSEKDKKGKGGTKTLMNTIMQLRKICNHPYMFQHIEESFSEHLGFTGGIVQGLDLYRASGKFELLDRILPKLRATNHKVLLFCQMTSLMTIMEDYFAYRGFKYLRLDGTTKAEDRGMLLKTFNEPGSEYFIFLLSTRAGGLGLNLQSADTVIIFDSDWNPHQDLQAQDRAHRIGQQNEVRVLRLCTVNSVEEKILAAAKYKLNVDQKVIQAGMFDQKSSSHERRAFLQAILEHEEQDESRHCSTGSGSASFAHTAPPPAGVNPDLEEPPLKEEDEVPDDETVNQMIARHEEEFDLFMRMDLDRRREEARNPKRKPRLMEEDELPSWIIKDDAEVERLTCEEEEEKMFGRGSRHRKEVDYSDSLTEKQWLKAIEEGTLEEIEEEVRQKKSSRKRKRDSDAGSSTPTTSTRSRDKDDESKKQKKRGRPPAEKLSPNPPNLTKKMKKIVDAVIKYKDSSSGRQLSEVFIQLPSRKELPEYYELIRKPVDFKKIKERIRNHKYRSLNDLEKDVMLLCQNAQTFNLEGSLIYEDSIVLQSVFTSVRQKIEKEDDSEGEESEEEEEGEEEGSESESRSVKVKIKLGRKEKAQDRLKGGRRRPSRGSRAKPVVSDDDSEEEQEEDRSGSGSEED

Row | Compound | DC50 [1] [nM] | DC50 [2] [nM] | DC50 [3] [nM] | Dmax [3] [%] | Dmax [2] [%]
1 | Cc1nccn1-c1ccc(CNC(=O)[C@@H]2C[C@@H](O)CN2C(=O)[C@@H](NC(=O)[C@H]2CC3(C2)C[C@H](N2CCC(c4cnc(N5C6CCC5CN(c5cc(-c7ccccc7O)nnc5N)C6)nc4)CC2)C3)C(C)(C)C)cc1 (stereo partly drawn) [I-34, (2S,4R)-1-((2S)-2-(6-(4-(2-(3-(3-amino-6-(2-hydroxyphenyl)pyridazin-4-yl)-3,8-diazabicyclo[3.2.1]octan-8-yl)pyrimidin-5-yl)piperidin-1-yl)spiro[3.3]heptane-2-carboxamido)-3,3-dimethylbutanoyl)-4-hydroxy-N-(4-(2-methyl-1H-imidazol-1-yl)benzyl-)pyrrolidine-2-carboxamide] | > 1000 | 100 to 500 |  |  | 
2 | Cc1ncsc1-c1cnc(CNC(=O)[C@@H]2C[C@@H](O)CN2C(=O)[C@@H](NC(=O)[C@H]2CC3(C2)C[C@H](N2CCC(c4ccc(N5C6CCC5CN(c5cc(-c7ccccc7O)nnc5N)C6)cc4)CC2)C3)C(C)(C)C)nc1 (stereo partly drawn) [I-26, (2S,4R)-1-((2S)-2-(6-(4-(4-(3-(3-amino-6-(2-hydroxyphenyl)pyridazin-4-yl)-3,8-diazabicyclo [3.2.1]octan-8-yl)phenyl)piperidin-1-yl)spiro[3.3]heptane-2-carboxamido)-3,3-dimethylbutanoyl)-4-hydroxy-N-((5-(4-methylthiazol-5-yl)pyrimidin-2-yl)methyl)pyrrolidine-2-carboxamide] | > 1000 |  | > 1000 |  | 
3 | Cc1ncsc1-c1cnc(CNC(=O)[C@@H]2C[C@@H](O)CN2C(=O)[C@@H](NC(=O)[C@H]2CC3(C2)C[C@H](N2CCC(c4ccc(N5C6CCC5CN(c5cc(-c7ccccc7O)nnc5N)C6)cc4)CC2)C3)C(C)(C)C)cn1 (stereo partly drawn) [I-30, (2S,4R)-1-((2S)-2-(6-(4-(4-(3-(3-amino-6-(2-hydroxyphenyl)pyridazin-4-yl)-3,8-diazabicyclo[3.2.1]octan-8-yl)phenyl)piperidin-1-yl)spiro[3.3]heptane-2-carboxamido)-3,3-dimethylbutanoyl)-4-hydroxy-N-((5-(4-methylthiazol-5-yl)pyrazin-2-yl)methyl)pyrrolidine-2-carboxamide] | > 1000 |  | > 1000 |  | 
4 | Cc1ncsc1-c1ccc(CNC(=O)[C@@H]2C[C@@H](O)CN2C(=O)C(c2cc([C@H]3CC[C@@H](N4CCC(c5cnc(N6C7CCC6CN(c6cc(-c8ccccc8O)nnc6N)C7)nc5)CC4)CC3)no2)C(C)C)cc1 (stereo partly drawn) [I-19, (2S,4R)-1-(2-(3-(4-(4-(2-(3-(3-amino-6-(2-hydroxyphenyl)pyridazin-4-yl)-3,8-diazabicyclo[3.2.1]octan-8-yl)pyrimidin-5-yl)piperidin-1-yl)cyclohexyl)isoxazol-5-yl)-3-methylbutanoyl)-4-hydroxy-N-(4-(4-methylthiazol-5-yl)benzyl)pyrrolidine-2-carboxamide] |  | < 100 | < 100 | > 90 | > 90
5 | Cc1ncsc1-c1ccc(CNC(=O)[C@@H]2C[C@@H](O)CN2C(=O)C(c2cc(O[C@H]3CC[C@@H](N4CCC(c5cnc(N6C7CCC6CN(c6cc(-c8ccccc8O)nnc6N)C7)nc5)CC4)CC3)no2)C(C)C)cc1 (stereo partly drawn) [I-18, (2S,4R)-1-(2-(3-(((1s,4R)-4-(4-(2-(3-(3-amino-6-(2-hydroxyphenyl)pyridazin-4-yl)-3,8-diazabicyclo[3.2.1]octan-8-yl)pyrimidin-5-yl)piperidin-1-yl)cyclohexyl)oxy)isoxazol-5-yl)-3-methylbutanoyl)-4-hydroxy-N-(4-(4-methylthiazol-5-yl)benzyl)pyrrolidine-2-carboxamide] |  | < 100 | < 100 | > 90 | > 90
6 | Cc1ncsc1-c1ccc(CNC(=O)[C@@H]2C[C@@H](O)CN2C(=O)C(c2cc(N3CCC(CCCN4CCC(c5cnc(N6C7CCC6CN(c6cc(-c8ccccc8O)nnc6N)C7)nc5)CC4)CC3)no2)C(C)C)cc1 (stereo partly drawn) [I-64] |  | < 100 | < 100 | > 90 | > 90
7 | Cc1ncsc1-c1ccc(CNC(=O)[C@@H]2C[C@@H](O)CN2C(=O)C(c2cc([C@H]3CC[C@H](N4CCC(c5cnc(N6C7CCC6CN(c6cc(-c8ccccc8O)nnc6N)C7)nc5)CC4)CC3)no2)C(C)C)cc1 (stereo partly drawn) [I-20, (2S,4R)-1-(2-(3-(4-(4-(2-(3-(3-amino-6-(2-hydroxyphenyl)pyridazin-4-yl)-3,8-diazabicyclo[3.2.1]octan-8-yl)pyrimidin-5-yl)piperidin-1-yl)cyclohexyl)isoxazol-5-yl)-3-methylbutanoyl)-4-hydroxy-N-(4-(4-methylthiazol-5-yl)benzyl)pyrrolidine-2-carboxamide] |  |  | < 100 | > 90 | 
8 | Cc1ncsc1-c1ccc(CNC(=O)[C@@H]2C[C@@H](O)CN2C(=O)C(c2cc(O[C@H]3CC[C@H](N4CCC(c5cnc(N6C7CCC6CN(c6cc(-c8ccccc8O)nnc6N)C7)nc5)CC4)CC3)no2)C(C)C)cc1 (stereo partly drawn) [I-17, (2S,4R)-1-(2-(3-(((1r,4S)-4-(4-(2-(3-(3-amino-6-(2-hydroxyphenyl)pyridazin-4-yl)-3,8-diazabicyclo[3.2.1]octan-8-yl)pyrimidin-5-yl)piperidin-1-yl)cyclohexyl)oxy)isoxazol-5-yl)-3-methylbutanoyl)-4-hydroxy-N-(4-(4-methylthiazol-5-yl)benzyl)pyrrolidine-2-carboxamide] |  | < 100 | < 100 | > 90 | > 90
